Assay results as given in patent EP4745124A1, “NAPHTHALIMIDE-BASED CORONAVIRUS PAPAIN-LIKE PROTEASE INHIBITOR” (Guangzhou National Laboratory, priority 2023, dated 2025).
Read-outs that look alike come from different tables or passages of the source.

How the values were obtained:
SARS-CoV-2 WT = assay: Anti-viral activity evaluation in SARS-CoV-2 infected Vero-E6 cell model (qRT-PCR viral copy numbers); type: cell-based; details: Severe acute respiratory syndrome coronavirus 2, Vero C1008, 48 h, read-out: SARS-Cov-2 WT EC50 (µM)
[1] = clearance proportion
SARS-Cov-2 Omicron BA.5 = assay: microbe, parasite or virus in culture; type: cell-based; details: Severe acute respiratory syndrome coronavirus 2, Vero C1008, 48 h, read-out: SARS-Cov-2 Omicron BA.5 EC50 (µM)
SARS-Cov-2 XBB.1 = assay: microbe, parasite or virus in culture; type: cell-based; details: Severe acute respiratory syndrome coronavirus 2, Vero C1008, 48 h, read-out: SARS-Cov-2 XBB.1 EC50 (µM)
[2] = clearance proportion; remark: listed apart in the source
[3] = Routine pharmacokinetic (PK) test in rats, oral gavage; type: in vivo; details: rat, 5 mg/kg, plasma
Method: Solvent formula: 10% DMSO, 5% ethanol, 5% Cremophor EL and 80% deionized water. […] Measure 1.316 mL of DMSO, vortex for 1 minute, and sonicate for 10 minutes to obtain a 5 mg/mL clear DMSO stock solution.
Take 1 mL of 5 mg/mL DMSO stock solution, add 0.5 mL of ethanol, vortex for 1 minute, add 0.5 mL of Cremophor EL, vortex for 1 minute, and finally add 8 mL of deionized water, vortex for 1 minute to obtain a clear administration formulation with a concentration of 0.5 mg/mL. Prepare it immediately before use and store it at room temperature after preparation.
Oral gavage administration, with the route of administration consistent with the intended clinical route of administration.
Oral sampling: There were a total of 8 collection time points, at 0.25, 0.5, 1, 2, 4, 6, 8 and 24 hours after administration.
Plasma: After euthanasia of the animals, blood was drawn by puncture. The samples were placed in tubes containing K2-EDTA and stored on ice until centrifugation. Within 1 hour after blood collection, the samples were centrifuged at 6800 g for 6 minutes at 2-8°C to obtain plasma samples, which were then frozen and stored at approximately -80°C.
Analyze the compound. While analyzing the sample, utilize quality control samples to evaluate the intra-day accuracy of the analytical batch.
When calculating pharmacokinetic parameters, the BLQ concentration data before the time to reach peak concentration (Tmax) in the oral administration group are calculated as "0", and BLQ concentration data after Tmax are excluded from all calculations.
The non-compartmental model statistical moment method using Phoenix WinNonlin® 7.0 software was employed to calculate the following main pharmacokinetic parameters: Tmax, Cmax, AUC(0-t), T1/2, etc.
1) Take 30 µL of mixed standard curve samples, quality control samples, blank samples, zero concentration samples, and test samples. 2) For standard curve samples, quality control samples, zero concentration samples and test samples, add 300 µL of internal standard working solution (containing 100 ng/mL IS). For blank samples, ULOQ without IS samples (if necessary), add the same volume of acetonitrile. 3) Vortex mix for 1 minute 4) Centrifuge at 4°C for 7 minutes (18,000g) 5) Take 200 µL of the supernatant to the corresponding wells of a 96-well injection plate. 6) Inject 4µL of sample for LC-MS/MS analysis. Table 4 Pharmacokinetic data of compounds after oral administration in vivo

SARS-CoV-2 PL^Pro = molecular target: T1, SARS-CoV-2 PL^Pro (Severe acute respiratory syndrome coronavirus 2, UniProt P0DTD1); assay: biochemical
T1 construct: SARS-CoV-2 PL^Pro catalytic domain (746-1060); made in house

[4] = SARS-CoV-2 PLPro catalytic domain (746-1060), 10 minutes pre-incubation, read-out: PLpro IC50

SMILES	EC50 (SARS-CoV-2 WT) [µM]	EC50 (SARS-Cov-2 Omicron BA.5) [µM]	EC50 (SARS-Cov-2 XBB.1) [µM]	IC50 (SARS-CoV-2 PL^Pro) [nM]	other results
Cc1ccc(N2CCN(C)CC2)cc1C(=O)NC1(c2ccc3c4c(cccc24)C(=O)N3C)CC1 [Compound P1, 2-Methyl-N-(1-(1-methyl-2-oxo-1,2-dihydrobenzo[cd]indol-6-yl)cyclopropyl)-5-(4-methylpiperazin-1-yl)benzamide]	0.1 to 1	0.1 to 1	0.1 to 1	–	Human Eh (%) [1]: 77%; Rat Eh (%) [2]: 37.3%; AUC(0-t) [3]: 3390 ng·h/mL; Cmax [3]: 393 ng/mL; Tmax [3]: 3 h; half-life [3]: 3 h
Cc1ccc(N2CC3CC(C2)N3)cc1C(=O)NC1(c2ccc3c4c(cccc24)C(=O)N3C)CC1 [Compound P5, 5-(3,6-diazabicyclo[3.1.1]heptan-3-yl)-2-methyl-N-(1-(1-methyl-2-oxo-1,2-dihydrobenzo[cd]indol-6-yl)cyclopropyl)be nzamide]	< 0.04	0.1 to 1	0.04 to 0.1	< 40	–
Cc1ccc(C2=CCN(C)CC2)cc1C(=O)NC1(c2ccc3c4c(cccc24)C(=O)N3C)CC1 [Compound P7, 2-Methyl-5-(1-methyl-1,2,3,6-tetrahydropiperidin-4-yl)-N-(1-(1-methyl-2-oxo-1,2-dihydrobenzo[cd]indol-6-yl)cyclopropyl)benzamide]	0.1 to 1	0.1 to 1	0.1 to 1	< 40	–
Cc1ccc(N2CC3CC(C2)N3C)cc1C(=O)NC1(c2ccc3c4c(cccc24)C(=O)N3C)CC1 [Compound P11, 2-methyl-N-(1-(1-methyl-2-oxo-1,2-dihydrobenzo[cd]indol-6-yl)cyclopropyl)-5-(6-methyl-3,6-diazabicyclo[3.1.1]heptan-3-yl)benzamide]	0.1 to 1	0.1 to 1	0.04 to 0.1	< 40	–
CC(C)N1C(=O)c2cccc3c(C4(NC(=O)c5cccc(N6CC7CC(C6)N7)c5)CC4)ccc1c23 [Compound P16, 5-(3,6-diazabicyclo[3.1.1]heptan-3-yl)-N-(1-(1-isopropyl-2-oxo-1,2-dihydrobenzo[cd]indol-6-yl)cyclopropyl)benzamide]	0.1 to 1	0.1 to 1	0.04 to 0.1	–	IC50 (SARS-CoV-2 PL^Pro; read-out: PLpro IC50): < 40 nM
Cc1ccc(N2CC(N3CCC(C)(O)CC3)C2)cc1C(=O)NC1(c2ccc3c4c(cccc24)C(=O)N3C)CC1 [Compound P17, 5-(3-(4-Hydroxy-4-methylpiperidin-1-yl)azetidin-1-yl)-2-methyl-N-(1-(1-methyl-2-oxo-1,2-dihydrobenzo[cd]indol-6-yl)cyclopropyl)benzamide]	< 0.04	0.1 to 1	0.04 to 0.1	–	IC50 (SARS-CoV-2 PL^Pro; [4]): < 40 nM
Cc1ccc(N2CCN(CCO)CC2)cc1C(=O)NC1(c2ccc3c4c(cccc24)C(=O)N3C)CC1 [Compound P53, 5-(4-(2-Hydroxyethyl)piperazin-1-yl)-2-methyl-N-(1-(1-methyl-2-oxo-1,2-dihydrobenzo[cd]indol-6-yl)cyclopropyl)ben zamide]	–	–	–	–	IC50 (SARS-CoV-2 PL^Pro; [4]): 40 to 100 nM
Cc1ccc(N2CC(N3CC(F)C3)C2)cc1C(=O)NC1(c2ccc3c4c(cccc24)C(=O)N3C)CC1 [Compound P54, 5-(3-Fluoro-[1,3'-diazetidinyl]-1'-yl)-2-methyl-N-(1-(1-methyl-2-oxo-1,2-dihydrobenzo[cd]indol-6-yl)cyclopropyl)ben zamide]	–	–	–	–	IC50 (SARS-CoV-2 PL^Pro; read-out: PLpro IC50): 40 to 100 nM
